# From patent US7897781B2, “Cold menthol receptor-1 antagonists” (Janssen Pharmaceutica NV, priority 2006, dated 2011)
# Values joined by “and” are separate entries in the source; they are usually repeats but may differ in a detail not shown here. Equal values may be shown once.
# Biological target: T1, canine TRPM8 (Canis lupus familiaris, UniProt Q1A7N1)
# T1 construct: expressed in transfected cells
# Experiment: In vitro canine TRPM8 functional assay (Ca2+-sensitive dye, icilin activation; Table 4 TRPM8 Screening)
# Type: cell-based
# Conditions: compound at 0.5 μM; HEK293 cells expressing canine TRPM8, icilin activation
# Protocol: The functional activity of compounds of Formula (I) was determined by measuring changes in intracellular calcium concentration using a Ca^2+-sensitive fluorescent dye. The changes in fluorescent signal were monitored by a fluorescence plate reader, either a FLIPR™ (Molecular Devices) or FDSS (Hamamatsu).
# HEK293 cells stably expressing canine TRPM8 were routinely grown as monolayers in Dulbecco's minimum essential medium supplemented with 10% FBS, 1 mM L-glutamine, 100 units/mL penicillin, 100 ug/mL streptomycin and 400 μg/mL G418. Cells were maintained in 5% CO2 at 37° C. At 24 hrs prior to assay, cells were seeded in clear-base poly-D-lysine coated 384-well plates (BD Biosciences, NJ, USA) at a density of 5,000 cells per well in culture medium and grown overnight in 5% CO2 at 37° C. On assay day, growth media was removed and cells were loaded with Calcium 3 Dye (Molecular Devices) for 35 min at 37° C., under 5% CO2 and then for 25 min at room temperature and atmosphere. Subsequently, cells were tested for agonist-induced increases in intracellular Ca^2+ levels using FLIPR™ or FDSS. Cells were challenged with a compound of Formula (I) (at varying concentrations) and intracellular Ca^2+ was measured for 5 min prior to the addition of icilin to all wells to achieve a final concentration which produces approximately an 80% maximal response.
# Basal FI was subtracted prior to normalizing data to percent of maximal response. Curves were generated using the average of quadruplicate wells for each data point, were analyzed using nonlinear regression of either sigmoidal dose response or sigmoidal dose response (variable slope). Finally, the EC50 and IC50 values were calculated with the best-fit dose curve determined by GraphPad Prism.
# T1 sequence (Q1A7N1 1-1104): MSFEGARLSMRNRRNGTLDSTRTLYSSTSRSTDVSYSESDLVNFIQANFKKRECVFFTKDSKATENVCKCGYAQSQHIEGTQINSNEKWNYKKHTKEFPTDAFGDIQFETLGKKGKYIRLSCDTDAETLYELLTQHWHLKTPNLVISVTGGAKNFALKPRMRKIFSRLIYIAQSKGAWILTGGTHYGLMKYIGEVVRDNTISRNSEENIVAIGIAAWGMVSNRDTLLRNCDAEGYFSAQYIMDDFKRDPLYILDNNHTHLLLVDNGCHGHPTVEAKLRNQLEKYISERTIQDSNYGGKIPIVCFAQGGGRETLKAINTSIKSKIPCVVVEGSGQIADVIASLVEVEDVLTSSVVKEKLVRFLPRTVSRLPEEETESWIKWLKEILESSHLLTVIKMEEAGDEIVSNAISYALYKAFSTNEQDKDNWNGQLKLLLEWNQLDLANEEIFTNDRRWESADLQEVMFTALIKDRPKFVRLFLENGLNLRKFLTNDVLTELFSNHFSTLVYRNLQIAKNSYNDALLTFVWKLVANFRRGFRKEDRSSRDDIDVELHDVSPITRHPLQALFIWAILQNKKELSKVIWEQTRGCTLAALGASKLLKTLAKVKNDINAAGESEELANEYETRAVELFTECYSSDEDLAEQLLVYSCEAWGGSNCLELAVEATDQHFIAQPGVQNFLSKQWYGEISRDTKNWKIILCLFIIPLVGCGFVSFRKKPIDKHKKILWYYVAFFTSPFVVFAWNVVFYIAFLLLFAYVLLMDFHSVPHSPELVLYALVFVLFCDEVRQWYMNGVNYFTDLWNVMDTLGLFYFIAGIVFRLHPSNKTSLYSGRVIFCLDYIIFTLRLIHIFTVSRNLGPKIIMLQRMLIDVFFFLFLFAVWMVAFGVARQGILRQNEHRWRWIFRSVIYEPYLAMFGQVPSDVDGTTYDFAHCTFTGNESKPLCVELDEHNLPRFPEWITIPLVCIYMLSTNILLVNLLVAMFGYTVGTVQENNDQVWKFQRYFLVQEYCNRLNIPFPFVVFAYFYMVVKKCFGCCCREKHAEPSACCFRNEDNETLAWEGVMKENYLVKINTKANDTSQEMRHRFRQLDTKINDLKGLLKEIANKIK
row,SMILES,% I (0.5 μM)
1,CCOP(=O)(OCC)C(Cc1cccc(OC(F)(F)F)c1)c1sc2ccccc2c1Br (racemic) [Cpd 145],"103, %"
2,CCOP(=O)(OCC)C(Cc1ccc(OC)c(C(F)(F)F)c1)c1sc2ccccc2c1Br (racemic) [Cpd 152],92%
3,CCOP(=O)(OCC)C(Cc1c(F)c(F)c(OC)c(F)c1F)c1sc2ccccc2c1Br (racemic) [Cpd 160],87%
4,CCOP(=O)(OCC)C(Cc1cc(OC)c(Cl)cc1F)c1sc2ccccc2c1Br (racemic) [Cpd 164],94%
5,CC(C)OP(=O)(OC(C)C)C(Cc1cc(C(F)(F)F)cc(C(F)(F)F)c1)c1sc2ccccc2c1Cl (racemic) [Cpd 171],95%
6,CC(C)OP(=O)(OC(C)C)C(Cc1ccc(F)c(F)c1)c1sc2ncccc2c1Br (racemic) [Cpd 207],99%
7,CC(C)CCOP(=O)(OCCC(C)C)C(Cc1ccc(F)c(F)c1)c1sc2ccccc2c1Br (racemic) [Cpd 211],97%
8,CC(=O)OCCOP(=O)(OCCOC(C)=O)C(Cc1ccc(F)c(F)c1)c1sc2ccccc2c1Br (racemic) [Cpd 213],100%
9,CCOP(=O)(OCC)C(Cc1ccc(F)c(F)c1)c1sc2ccccc2c1-c1ccccc1F (racemic) [Cpd 216],100%
10,CCOP(=O)(OCC)C(Cc1ccc(F)c(F)c1)c1sc2ccccc2c1-c1cccc(C(N)=O)c1 (racemic) [Cpd 218],79%
11,CCOP(=O)(OCC)C(Cc1c(F)c(F)c(O)c(F)c1F)c1sc2ccccc2c1Br (racemic) [Cpd 228],94%
12,CC(C)OP(=O)(OC(C)C)C(Cc1c(F)c(F)c(O)c(F)c1F)c1sc2ccccc2c1Br (racemic) [Cpd 229],95%
13,CC(C)OP(=O)(OC(C)C)C(Cc1cccc(O)c1F)c1sc2ccccc2c1Br (racemic) [Cpd 230],97%
14,CCOP(=O)(OCC)C(Cc1cc(O)c(Cl)cc1F)c1sc2ccccc2c1Br (racemic) [Cpd 231],98%
15,CC(C)OP(=O)(OC(C)C)C(Cc1cc(O)c(Cl)cc1F)c1sc2ccccc2c1Br (racemic) [Cpd 232],99%
16,CCOP(=O)(OCC)C(Cc1ccccc1C(F)(F)F)c1sc2ccccc2c1Cl (racemic) [Cpd 279],97%
17,CCOP(=O)(OCC)C(Cc1cc(C(F)(F)F)cc(C(F)(F)F)c1)c1sc2ccccc2c1Cl (racemic) [Cpd 282],100%
18,CCOP(=O)(OCC)C(Cc1ccc(OC)c(C(F)(F)F)c1)c1sc2ccccc2c1Cl (racemic) [Cpd 292],99%

# Same assay, conditions: compound at 1 μM; HEK293 cells expressing canine TRPM8, icilin activation
row,SMILES,% I (1 μM)
1,CCOP(=O)(Cc1cc2ccccc2s1)OCc1ccccc1Cl (racemic) [Cpd 105],48%
2,CCOP(=O)(OCC)C(Cc1ccc(F)c(F)c1)c1oc2cccc(F)c2c1Br (racemic) [Cpd 206],100%
3,"CCOP(=O)(CC(C)C)C(Cc1ccc(F)c(F)c1)c1sc2ccccc2c1C (stereo not drawn) [Cpd 6, [2-(3,4-Difluoro-phenyl)-1-(3-methyl-benzo[b]thiophene-2-yl)-ethyl]-isobutyl-phosphonic acid ethyl ester]",100%
4,CCOP(=O)(OCC)C(Cc1cccc(F)c1F)c1sc2ccccc2c1C (stereo not drawn) [Cpd 10],100%
5,Cc1c(C(Cc2ccc(F)c(F)c2)P(=O)(OC(C)C)OC(C)C)oc2ccccc12 (stereo not drawn) [Cpd 11],99%
6,"CC(C)OP(=O)(OC(C)C)C(Cc1ccc(F)c(F)c1)c1sc2ccccc2c1Br (stereo not drawn) [Cpd 15, [1-(3-Bromo-benzo[b]thiophen-2-yl)-2-(3,4-difluoro-phenyl)ethyl]-phosphonic acid diisopropyl ester]",100% and 103%
7,CC(C)OP(=O)(OC(C)C)C(Cc1ccc(F)c(F)c1)c1sc2ccccc2c1C(C)C (stereo not drawn) [Cpd 19],100%
8,CCOP(=O)(OCC)C(Cc1cccc(Cl)c1F)c1sc2ccccc2c1C (stereo not drawn) [Cpd 23],100%
9,CCOP(=O)(OCC)C(Cc1ccccc1C)c1sc2ccccc2c1C (stereo not drawn) [Cpd 26],100%
10,CCOP(=O)(OCC)C(Cc1ccc(F)cc1Cl)c1sc2ccccc2c1C (stereo not drawn) [Cpd 27],99%
11,CCOP(=O)(OCC)C(Cc1cc(F)cc(F)c1Cl)c1sc2ccccc2c1C (stereo not drawn) [Cpd 28],100%
12,"Cc1c(C(Cc2ccc(F)c(F)c2)P(=O)(OC(C)C)OC(C)C)sc2ncccc12 (stereo not drawn) [Cpd 34, [2-(3,4-Difluoro-phenyl)-1-(3-methyl-thieno[2,3-b]pyridin-2-yl)-ethyl]-phosphonic acid diisopropyl ester]","101, 101%"
13,CCOP(=O)(OCC)C(Cc1cccc(Cl)c1Cl)c1sc2ccccc2c1C (stereo not drawn) [Cpd 35],100%
14,"CCOP(=O)(CC(C)C)C(Cc1ccc(F)c(F)c1)c1sc2ccccc2c1C (stereo not drawn) [Cpd 36, [2-(3,4-Difluoro-phenyl)-1-(3-methyl-benzo[b]thiophene-2-yl)-ethyl]-isobutyl-phosphonic acid ethyl ester]",100%
15,CCOP(=O)(OCC)C(Cc1cccc(C(F)(F)F)c1F)c1sc2ccccc2c1C (stereo not drawn) [Cpd 37],100%
16,CC(C)OP(=O)(OC(C)C)C(Cc1ccc(F)c(F)c1)c1sc2ccccc2c1C1CCCC1 (stereo not drawn) [Cpd 38],99%
17,CCOP(=O)(OCC)C(Cc1cccc(C(F)(F)F)c1)c1cc2ccccc2s1 (stereo not drawn) [Cpd 39],100%
18,CCCP(=O)(CCC)C(OCc1ccc(F)c(F)c1)c1sc2ccccc2c1C (stereo not drawn) [Cpd 42],100%
19,CCOP(=O)(OCC)C(Cc1ccc2ccccc2c1)c1sc2ccccc2c1C (stereo not drawn) [Cpd 46],99%
20,CCOP(=O)(OCC)C(Cc1ccccc1Cl)c1sc2ccccc2c1C (stereo not drawn) [Cpd 48],100%
21,"Cc1c(C(Cc2ccc(F)c(F)c2)P(=O)(OCC(C)(C)C)OCC(C)(C)C)sc2ccccc12 (stereo not drawn) [Cpd 53, [2-(3,4-Difluoro-phenyl)-1-(3-methyl-benzo[b]thiophen-2-yl)ethyl]-phosphonic acid bis-(2,2-dimethyl-propyl) ester]",97%
22,CCOP(=O)(OCC)C(Cc1c(Cl)cccc1Cl)c1sc2ccccc2c1C (stereo not drawn) [Cpd 54],100%
23,CCOP(=O)(OCC)C(Cc1cccc(OC(F)(F)F)c1)c1sc2ccccc2c1C (stereo not drawn) [Cpd 57],100%

row,SMILES,% I (1 μM)
1,CCOP(=O)(OCC)C(Cc1ccc(C(F)(F)F)c(F)c1)c1cc2ccccc2s1 (stereo not drawn) [Cpd 58],100%
2,CCOP(=O)(OCC)C(Cc1ccccc1C(F)(F)F)c1sc2ccccc2c1C (stereo not drawn) [Cpd 59],99%
3,CCOP(=O)(OCC)C(Cc1c(Cl)ccc(C)c1F)c1sc2ccccc2c1C (stereo not drawn) [Cpd 60],100%
4,CCOP(=O)(OCC)C(Cc1ccccc1OC(F)(F)F)c1sc2ccccc2c1C (stereo not drawn) [Cpd 61],100%
5,CCOP(=O)(OCC)C(Cc1ccccc1Br)c1sc2ccccc2c1C (stereo not drawn) [Cpd 66],100%
6,CCOP(=O)(OCC)C(Cc1cc(C(F)(F)F)ccc1F)c1sc2ccccc2c1C (stereo not drawn) [Cpd 67],100%
7,CCOP(=O)(OCC)C(Cc1ccc(C(F)(F)F)cc1)c1cc2ccccc2s1 (stereo not drawn) [Cpd 68],96%
8,CC(C)OP(=O)(OC(C)C)C(Cc1cccc(C(F)(F)F)c1)c1cc2ccccc2s1 (stereo not drawn) [Cpd 69],99%
9,CCOP(=O)(OCC)C(Cc1ccc(Br)cc1)c1cc2ccccc2s1 (stereo not drawn) [Cpd 70],82%
10,CCOP(=O)(OCC)C(Cc1cc2c(cc1Cl)OCO2)c1sc2ccccc2c1C (stereo not drawn) [Cpd 71],98%
11,CCOP(=O)(OCC)C(Cc1cc(C(F)(F)F)cc(Cl)c1F)c1sc2ccccc2c1C (stereo not drawn) [Cpd 73],100%
12,CCOP(=O)(OCC)C(Cc1ccccc1)c1cc2ccccc2s1 (stereo not drawn) [Cpd 74],92%
13,CCOP(=O)(OCC)C(Cc1cc(F)c(Cl)cc1Cl)c1sc2ccccc2c1C (stereo not drawn) [Cpd 76],100%
14,CCOP(=O)(OCC)C(Cc1ccccc1F)c1cc2ccccc2s1 (stereo not drawn) [Cpd 80],93%
15,CCOP(=O)(OCC)C(Cc1cccc(C(F)(F)F)c1Cl)c1sc2ccccc2c1C (stereo not drawn) [Cpd 81],100% and 87%
16,CCOP(=O)(OCC)C(Cc1ccc2ccccc2c1)c1cc2ccccc2s1 (stereo not drawn) [Cpd 83],84%
17,CCOP(=O)(OCC)C(Cc1ccccc1Cl)c1cc2ccccc2s1 (stereo not drawn) [Cpd 85],90%
18,"CCOP(=O)(OCC)C(Cc1ccc(F)c(F)c1)C1=C(C)c2ccccc2S1(=O)=O (stereo not drawn) [Cpd 88, [2-(3,4-Difluoro-phenyl)-1-(3-methyl-1,1-dioxo-1H-1λ^6-benzo-[b]thiophen-2-yl)-ethyl]-phosphonic acid diethyl ester]",89%
19,CCOP(=O)(OCC)C(Cc1ccccc1C)c1cc2ccccc2s1 (stereo not drawn) [Cpd 89],91%
20,CCOP(=O)(OCC)C(Cc1cc2ccccc2s1)c1cc2ccccc2s1 (stereo not drawn) [Cpd 90],89%
21,CCOP(=O)(OCC)C(Cc1c(Cl)cccc1Cl)c1cc2ccccc2s1 (stereo not drawn) [Cpd 95],89%
22,CCOP(=O)(OCC)C(Cc1cc(C(F)(F)F)cc(C(F)(F)F)c1)c1cc2ccccc2s1 (stereo not drawn) [Cpd 96],92%

# Same assay, conditions: compound at 5 μM; HEK293 cells expressing canine TRPM8, icilin activation
row,SMILES,% I (5 μM)
1,CCOP(=O)(Cc1cc2ccccc2s1)OCc1ccccc1Cl (racemic) [Cpd 105],100%
2,CCOP(=O)(OCC)C(Cc1ccc(Br)cc1)c1cc2ccccc2s1 (stereo not drawn) [Cpd 70],99%
3,CCOP(=O)(OCC)C(Cc1ccccc1F)c1cc2ccccc2s1 (stereo not drawn) [Cpd 80],100%
4,CCOP(=O)(OCC)C(Cc1ccccc1Cl)c1cc2ccccc2s1 (stereo not drawn) [Cpd 85],100%
5,CCOP(=O)(OCC)C(Cc1ccccc1C)c1cc2ccccc2s1 (stereo not drawn) [Cpd 89],100%
6,CCOP(=O)(OCC)C(Cc1c(Cl)cccc1Cl)c1cc2ccccc2s1 (stereo not drawn) [Cpd 95],100%
